Read-outs that look alike come from different tables or passages of the source.
Tests used:
[1] = system: CDK9-specific phosphorylation of RNA polymerase II (RNAPII) on serine 2; experiment: In-cell RNAPII phosphorylation (immunoblot); format: cell-based, human; settings: Homo sapiens, 3 h
Method: (§1) The following cancer cell lines were investigated in the course of these studies: A2780 (ovarian), HCT116 (colon), RPMI8226 (myeloma), SKMel28 (melanoma), Colo205 (colorectal), MDA-MB-435 (melanoma), MDA-MB-453 (breast, carcinoma), MDA-MB-468 (breast, adenocarcinoma), A549 (lung), Raji (lymphoma, Burkitt). Cell lines were obtained from public repositories.
CDK9-specific phosphorylation of RNA polymerase II (RNAPII) on Serine 2 (Ser2). Asynchronous cells were treated with an appropriate concentration of test compound or DMSO as a control. After 3 h incubation (37° C./5% CO2) cells were lysed with CLB-1 lysis buffer (Zeptosense, Switzerland), the lysate was cleared by centrifugation (10 min, 13000 rpm, RT) and subjected to SDS-PAGE. Total protein was blotted on PVDF membranes and analyzed using antibodies against S2-phosphorylated RNAPII (H5; Covance) or total RNAPII (N-20; Santa Cruz) as an expression control. Visualization was conducted using secondary Alexa680- or IR800-coupled antibodies (Molecular Probes) against mouse or rabbit Fc tails on the Odyssey-system (Licor). Specific bands were quantified and IC50 values of inhibition of RNAPII phosphorylation were estimated.

[2] = system: CDK4/6-specific phosphorylation of Rb on serine 780; experiment: In-cell Rb phosphorylation (immunoblot); format: cell-based, human; settings: Homo sapiens, read-out: IC50 (uM) - Rb-5 phosphorylation
Text: This set of assays represents CDKs involved in cell cycle progression (CDK1, 4/6), and the “regulatory CDK” (CDK9) which is involved in transcriptional regulation.
as §1
CDK4/6-specific phosphorylation of Rb on serine 780 (Ser780phos). Asynchronous growing cells were treated with an appropriate concentration of test compound or DMSO for 1 hour. Proteins were extracted using the AllPrep RNA/Protein kit according to the manufacturer's recommendations (Qiagen, Germany). Rb was immunoprecipitated over night using Ab05 antibody (Oncogene Inc.). Proteins were separated by SDS-PAGE, blotted to PVDF membranes and analyzed with antibodies against total (sc-102; Santa Cruz) or Ser780-phosphorylated Rb proteins (Cell Signalling). Visualization and quantification was performed as above.

Structure (SMILES): CC(C)c1nn(-c2c(Cl)cncc2Cl)c2nc(Cc3ccc(CN4CCCC4)c(O)c3)[nH]c(=O)c12 [Compound I, 1-(3,5-dichloropyridin-4-yl)-6-(3-hydroxy-4-pyrrolidinomethyl-phenyl)methyl-3-isopropyl-pyrazolo[3,4-d]pyrimidin-4-one]
- IC50 ([1]; COLO 205, Colo205 cells): ~0.1 µM
- IC50 ([1]; HCT-116, HCT116 cells): ~0.1 µM
- IC50 ([1]; RPMI-8226, RPMI8226 cells): ~0.1 µM
- IC50 ([1]; A2780 cells): ~0.1 µM
- IC50 ([1]; MDA-MB-468 cells): ~0.1 µM
- IC50 ([1]; Sk-mel-28 cells): ~0.1 µM
- IC50 ([2]; A2780, 1 h, A2780 cells): ~0.5 µM
- IC50 ([2]; HCT-116, 1 h, HCT116 cells): ~5 µM
- IC50 ([2]; MDA-MB-435, 1 h, MDA-MB-435 cells): ~3 µM
- IC50 ([2]; RPMI-8226, 1 h, RPMI8226 cells): ~5 µM
- IC50 ([2]; SK-MEL-28, 1 h, Sk-mel-28 cells): ~3 µM
